Measurements published in BindingDB's records for doi:10.1021/jm00126a009 (Northeastern University, 1989).

How the values were obtained:
[1] = Compound was evaluated for the ability to displace [3H]spiperone at Dopamine receptor D2 in porcine anterior pituitary gland as low affinity state
[2] = as above; remark: listed apart in the source
[3] = Compound was evaluated for the ability to displace [3H]spiperone at dopamine receptor in porcine anterior pituitary gland as high affinity state
[4] = Compound was evaluated for the ability to displace [3H]spiperone at Dopamine receptor D2 in porcine anterior pituitary gland as high affinity state

| SMILES | Kd [1] [nM] | Kd [2] [nM] | Kd [3] [nM] | Kd [4] [nM] |
| --- | --- | --- | --- | --- |
| CN1CCc2cc(N)cc3c2[C@H]1Cc1ccc(O)c(O)c1-3 | 3300 | 20 |  |  |
| CN1CCc2cc(F)cc3c2[C@H]1Cc1ccc(O)c(O)c1-3 [(R)-2-Fluoro-6-methyl-5,6,6a,7-tetrahydro-4H-dibenzo[de,g]quinoline-10,11-diol] |  |  | 0.43 | 94 |
| CN1CCc2cc(Br)cc3c2[C@H]1Cc1ccc(O)c(O)c1-3 | 728 |  |  | 6.8 |
